Patent US20250011319A1, “SUBSTITUTED 1H-PYRAZOLO [4,3-c] QUINOLINES, METHODS OF PREPARATION, AND USE THEREOF” (Lomond Therapeutics, Inc., priority 2021, published 2025)
Read-outs that look alike come from different tables or passages of the source.

Experiments:
[1] = test system: MOLM-13; experiment: MOLM-13 Cytotoxicity Assay; assay type: cell-based; conditions: Homo sapiens
Experimental: Example C. MOLM-13 Cytotoxicity Assay. Assay was performed according the procedure described in O. A. Elgamal et al. J. Hematol. Oncol. 2020, 13, 8 (https://doi.org/10.1186/s13045-019-0821-7).

[2] = test system: MV4-11 cell lines; experiment: MV4-11 Cytotoxicity Assay (CellTiter-Glo); assay type: cell-based; conditions: Homo sapiens, read-out: MV4-11, CC50
Experimental: Example B. MV4-11 Cytotoxicity Assay. CC50 was determined using MV4-11 cell lines in RPMI-1640 culture medium (PanEco cat #C363). Compounds were prepared as 200× stocks with serial dilution in 100% DMSO with a final concentration of 1×. Dispersed 40 μL in 384-well plates at a concentration of 4000 cells per well using a robotic station Biomek (Beckman). Before adding compounds, the cells were incubated at 37° C. A dilution plate was prepared by pouring 78 μl of the appropriate culture medium using a robotic station Biomek (Beckman). Sequentially, using a robotic station, 2 μl of substances were taken and added to 78 μl of culture medium (dilution of compounds 40×). Took from there 10 μl and added to the plates to the cells (dilution of compounds 5×). The plates were incubated for 3 days at a temperature 37° C. After 3 days, 10 μl of CellTiter-Glo (Promega) was added to the cells and the luminescence was measured.

[3] = target: recombinant HPK1 protein (Homo sapiens (Human), UniProt Q92918); experiment: Primary HPK1 enzymatic inhibition (ADP-Glo luminescence); assay type: biochemical; conditions: recombinant HPK1, MBP substrate, 1 hour at room temperature
recombinant HPK1 protein, sequence (Q92918 whole entry): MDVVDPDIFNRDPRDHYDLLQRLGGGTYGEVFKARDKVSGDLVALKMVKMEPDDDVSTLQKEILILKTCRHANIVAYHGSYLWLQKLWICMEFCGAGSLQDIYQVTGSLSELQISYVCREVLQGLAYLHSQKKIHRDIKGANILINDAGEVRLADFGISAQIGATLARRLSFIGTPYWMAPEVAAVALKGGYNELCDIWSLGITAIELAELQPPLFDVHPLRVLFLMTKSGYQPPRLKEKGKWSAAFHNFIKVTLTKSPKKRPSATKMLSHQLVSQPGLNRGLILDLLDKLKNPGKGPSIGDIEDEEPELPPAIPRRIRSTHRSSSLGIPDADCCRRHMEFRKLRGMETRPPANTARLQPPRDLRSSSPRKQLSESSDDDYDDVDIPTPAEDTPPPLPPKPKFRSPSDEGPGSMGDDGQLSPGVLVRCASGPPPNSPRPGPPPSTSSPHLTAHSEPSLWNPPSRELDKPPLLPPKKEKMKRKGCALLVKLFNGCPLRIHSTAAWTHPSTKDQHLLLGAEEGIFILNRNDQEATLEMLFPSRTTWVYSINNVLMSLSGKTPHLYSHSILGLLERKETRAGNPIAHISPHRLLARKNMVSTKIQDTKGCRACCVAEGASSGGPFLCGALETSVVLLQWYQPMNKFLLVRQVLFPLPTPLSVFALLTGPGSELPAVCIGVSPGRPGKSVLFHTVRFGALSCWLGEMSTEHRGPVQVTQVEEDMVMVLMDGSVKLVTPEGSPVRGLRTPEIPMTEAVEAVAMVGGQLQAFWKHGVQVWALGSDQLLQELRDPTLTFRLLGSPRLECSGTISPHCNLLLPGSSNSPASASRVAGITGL
Experimental: Example A. Primary Assay used to determine potency of HPK1 enzymatic activity inhibition. Compound activity was determined using recombinant HPK1 protein and MBP Substrate (both Promega, Cat #V6398) in an in vitro enzymatic reaction. The enzymatic assay used to determine activity was a Luminescence assay using a Microplate Reader ClarioStar Plus. The enzymatic reaction was carried out in assay buffer (40 mM TRIS-HCl pH 7.4-7.6, 20 mM MgCl2, 0.05 mM DTT, 0.1 mg/ml BSA). The compounds were dispensed on a 384 well Diamond Well Plate (Axigen, Cat #P-384-120SQ-C—S) using the Biomek FX liquid handling system at 100× solutions of compounds in DMSO. 2×HPK1-MBP mix (final concentration 0.64 ng/μl of HPK1 and 45 ng/μl of MBP) was prepared in 1× Assay buffer and 5.5 μl of mixture per well was added into 384 w white Reaction plate with NBS (Corning, Cat #4513). 5.5 μl of MBP substrate w/o HPK1 in 1× buffer was used for negative control. Plates were centrifuged for 1 min at 100 g. Next step the Compounds were added to Reaction plate using Biomek station via following steps: 1l of 100× compounds (in DMSO) were mixed thoroughly with 49 ul of 2×10 uM ATP in Assay Buffer, then 5.5 μl of this mixture was added to Reaction plate with 5.5 μl of HPK1-MBP mix. Plates were centrifuged for 1 min at 100 g and incubated for 1 hour at room temperature. Next 3 μL of ADP-Glo reagent (Promega, ADP-Glo™ Kinase Assay, Cat #V9102) per well was added. Plates were incubated for 30 minutes at room temperature. Then 6 μL of Kinase detection reagent (Promega, ADP-Glo™ Kinase Assay, Cat #V9102) per well was added and the Luminescence was measured using Microplate Reader. The % inhibition was then used to calculate the IC50 values.

[4] = HEK293 cytotoxicity; assay type: cell-based; conditions: human, HEK293 cells
Experimental: (§1) Example D. FLT3 inhibitory activity and cytotoxicity. This assay was used to determine potency of FLT3 enzymatic activity inhibition. Corresponding biochemical inhibition of enzymatic activities of FLT3 (wt), FLT3 (D835Y), and FLT3 (ITD) were measured using recombinant protein constructs of kinase domains via activity based FLT3 kinase assay for compound screening and profiling via radiometric HotSpot™ kinase assay (Reaction Biology). Peptide substrate [[…]]. Compounds were dissolved to 10 mM in DMSO. Compounds were tested in 10-dose IC50 mode with a 3-fold serial dilution starting at 0.3 μM. […] Reactions were carried out at 1 μM ATP. The estimated Ki values were calculated by using the formula presented below, which is applicable for ATP competitive inhibitors: Ki=IC50/(1+[S]/Km). […] In Table E shown HEK293 cytotoxicity.

[5] = target: FLT3 (D835Y) (Homo sapiens (Human), UniProt P36888, D835Y); experiment: FLT3 kinase radiometric HotSpot assay, FLT3 (D835Y); assay type: biochemical
Experimental: as §1

[6] = target: FLT3 (wt) (Homo sapiens (Human), UniProt P36888); experiment: FLT3 kinase radiometric HotSpot assay, FLT3 (wt); assay type: biochemical
Experimental: as §1

[7] = target: FLT3 (ITD) (Homo sapiens, UniProt P36888, ITD); experiment: FLT3 kinase radiometric HotSpot assay, FLT3 (ITD); assay type: biochemical
[8] = MOLM-13 cells, read-out: MOLM-13, CC50
[9] = 72 h, MV4-11 cells, 3 days, CellTiter-Glo

Ki [3] [nM]	Structure (SMILES)	CC50 [1, 8] [nM]	CC50 [2, 9] [nM]	Ki [5] [nM]	Ki [6] [nM]	other results
10 to 20	COc1ccc2ncc3c(-c4cccc(N5CCC(N(C)C)CC5)c4)nn(-c4ccc(C)c(C)c4)c3c2c1 [Compound 1.1, 1-{3-[1-(3,4-dimethylphenyl)-8-methoxy-1H-pyrazolo[4,3-c]quinolin-3-yl]phenyl}-N,N-dimethylpiperidin-4-amine]	1000 to 5000	> 500	–	–	–
10 to 20	COc1ccc2ncc3c(-c4cccc(N5CCN(C)CC5)c4)nn(-c4ccc(C)c(C)c4)c3c2c1 [Compound 1.3, 1-{3-[1-(3,4-dimethylphenyl)-8-methoxy-1H-pyrazolo[4,3-c]quinolin-3-yl]phenyl}-4-methylpiperazine]	> 5000	100 to 500	–	–	–
< 10	COc1ccc2ncc3c(-c4cccc(N5CCC(N(C)C)CC5)c4)nn(-c4cccc(C)c4C)c3c2c1 [Compound 1.14, 1-{3-[1-(2,3-dimethylphenyl)-8-methoxy-1H-pyrazolo[4,3-c]quinolin-3-yl]phenyl}-N,N-dimethylpiperidin-4-amine]	–	> 500	–	–	–
10 to 20	COc1ccc2ncc3c(-c4ccc(N5CCN(C)CC5)cc4)nn(-c4ccc(C)c(C)c4)c3c2c1 [Compound 1.16, 1-{4-[1-(3,4-dimethylphenyl)-8-methoxy-1H-pyrazolo[4,3-c]quinolin-3-yl]phenyl}-4-methylpiperazine]	< 500	50 to 100	–	–	–
10 to 20	COc1ccc2ncc3c(-c4ccc(N5CCC(N(C)C)CC5)cc4)nn(-c4ccc(C)c(C)c4)c3c2c1 [Compound 1.17, 1-{4-[1-(3,4-dimethylphenyl)-8-methoxy-1H-pyrazolo[4,3-c]quinolin-3-yl]phenyl}-N,N-dimethylpiperidin-4-amine]	–	50 to 100	–	–	–
20 to 50	COc1ccc2ncc3c(-c4ccc(N(C)CCCN(C)C)cc4)nn(-c4ccc(C)c(C)c4)c3c2c1 [Compound 1.18, N-[3-(dimethylamino)propyl]-4-[1-(3,4-dimethylphenyl)-8-methoxy-1H-pyrazolo[4,3-c]quinolin-3-yl]-N-methylaniline]	> 5000	100 to 500	–	–	–
≥ 50	Cc1ccc(-n2nc(-c3ccc(N4CCN(C)CC4)cc3)c3cnc4ccccc4c32)cc1C [Compound 1.21, 1-{4-[1-(3,4-dimethylphenyl)-1H-pyrazolo[4,3-c]quinolin-3-yl]phenyl}-4-methylpiperazine]	1000 to 5000	100 to 500	–	–	–
≥ 50	Cc1ccc(-n2nc(-c3ccc(N4CCNCC4)cc3)c3cnc4ccccc4c32)cc1C [Compound 1.22, 1-{4-[1-(3,4-dimethylphenyl)-1H-pyrazolo[4,3-c]quinolin-3-yl]phenyl}piperazine]	1000 to 5000	100 to 500	–	–	–
20 to 50	COc1ccc2ncc3c(-c4ccc(OCCN5CCOCC5)c(OC)c4)nn(-c4ccc(C)c(C)c4)c3c2c1 [Compound 1.25, 4-(2-{4-[1-(3,4-dimethylphenyl)-8-methoxy-1H-pyrazolo[4,3-c]quinolin-3-yl]-2-methoxyphenoxy}ethyl)morpholine]	1000 to 5000	100 to 500	–	–	–
20 to 50	COc1ccc2ncc3c(-c4ccc(OCCCN5CCOCC5)c(OC)c4)nn(-c4ccc(C)c(C)c4)c3c2c1 [Compound 1.26, 4-(3-{4-[1-(3,4-dimethylphenyl)-8-methoxy-1H-pyrazolo[4,3-c]quinolin-3-yl]-2-methoxyphenoxy}propyl)morpholine]	500 to 1000	50 to 100	–	–	–
–	COc1ccc(-c2nn(-c3ccc4c(c3)CNCC4)c3c2cnc2ccccc23)cc1OC [Compound 1.31, 7-[3-(3,4-dimethoxyphenyl)-1H-pyrazolo[4,3-c]quinolin-1-yl]-1,2,3,4-tetrahydroisoquinoline]	–	–	< 0.5	< 0.5	CC50 [4]: < 10000 nM; Ki [7]: 0.5 to 2 nM
–	COc1ccc(-c2nn(-c3ccc4c(c3)CCNC4)c3c2cnc2ccccc23)cc1OC [Compound 1.32, 6-[3-(3,4-dimethoxyphenyl)-1H-pyrazolo[4,3-c]quinolin-1-yl]-1,2,3,4-tetrahydroisoquinoline]	–	–	0.5 to 2	0.5 to 2	CC50 [4]: 10000 to 50000 nM; Ki [7]: > 5 nM
–	COc1ccc(-c2nn(-c3ccc4c(c3)CNC4)c3c2cnc2ccccc23)cc1OC [Compound 1.33, 5-[3-(3,4-dimethoxyphenyl)-1H-pyrazolo[4,3-c]quinolin-1-yl]-2,3-dihydro-1H-isoindole]	–	–	< 0.5	0.5 to 2	CC50 [4]: ≥ 50000 nM; Ki [7]: 2 to 5 nM
–	COc1ccc2ncc3c(-c4ccc(OC)c(OC)c4)nn(-c4ccc5c(c4)CNCC5)c3c2c1 [Compound 1.34, 7-[3-(3,4-dimethoxyphenyl)-8-methoxy-1H-pyrazolo[4,3-c]quinolin-1-yl]-1,2,3,4-tetrahydroisoquinoline]	–	–	< 0.5	< 0.5	Ki ([7]; read-out: Ki, nM FLT3 (ITD)): < 0.5 nM
< 10	COc1ccc2ncc3c(-c4ccc(OC)c(OC)c4)nn(-c4ccc5c(c4)CCNC5)c3c2c1 [Compound 1.35, 6-[3-(3,4-dimethoxyphenyl)-8-methoxy-1H-pyrazolo[4,3-c]quinolin-1-yl]-1,2,3,4-tetrahydroisoquinoline]	–	–	< 0.5	< 0.5	CC50 [4]: < 10000 nM; Ki ([7]; read-out: Ki, nM FLT3 (ITD)): 0.5 to 2 nM
< 10	COc1ccc2ncc3c(-c4ccc(OC)c(OC)c4)nn(-c4ccc5c(c4)CNC5)c3c2c1 [Compound 1.36, 5-[3-(3,4-dimethoxyphenyl)-8-methoxy-1H-pyrazolo[4,3-c]quinolin-1-yl]-2,3-dihydro-1H-isoindole]	–	–	< 0.5	< 0.5	CC50 [4]: < 10000 nM; Ki ([7]; read-out: Ki, nM FLT3 (ITD)): 0.5 to 2 nM

Structure (SMILES)	Ki [3] [nM]	CC50 [1, 8] [nM]	CC50 [2, 9] [nM]	Ki [5] [nM]	Ki [6] [nM]	other results
COc1ccc2ncc3c(-c4ccc(OCCN(C)C)c(OC)c4)nn(-c4ccc(C)c(C)c4)c3c2c1 [Compound 1.24, (2-{4-[1-(3,4-dimethylphenyl)-8-methoxy-1H-pyrazolo[4,3-c]quinolin-3-yl]-2-methoxyphenoxy}ethyl)dimethylamine]	10 to 20	–	–	–	–	CC50 ([1]; MOLM-13, read-out: MOLM-13, CC50): < 500 nM; CC50 ([2]; MV4-11, 72 h): < 50 nM
